Assay [1] deals with HepG2 cells. Nature of the assay: MTT cytotoxicity, HepG2. In kind it is cell-based, human. The settings on record: mean of three experiments.
Assay [2] has as its system K562 cells. Briefly: MTT cytotoxicity, K562. In kind it is cell-based, human. The note with it: mean of three experiments.
Assay [3] relates to HCT-116 cells. Briefly: MTT cytotoxicity, HCT-116. In kind it is cell-based, human. The note with it: mean of three experiments.
The subject of assay [4] is QSG-7701 cells. Briefly: MTT cytotoxicity, QSG-7701 normal hepatocyte. The assay is classed as cell-based. The settings on record: normal hepatocyte cell line.
Assay [5] deals with MDA-MB-231 cells. Briefly: MTT cytotoxicity, MDA-MB-231. In kind it is cell-based. The note with it: Homo sapiens, 48 h, mean of three experiments.

Structures can show the parent of a compound that is named as a salt. Some results are limits rather than exact numbers.

Consider `CC(=O)c1ccc2c3c(cccc13)C(=O)N(CCCCNCCCCN)C2=O` [5d, 2-[(2-Dimethylamino)ethyl-[4-(4-aminobutylamino)butyl]-6-acetyl-1H-benz[de]isoquinoline-1,3(2H)-dione dihydrochloride], for which the IC50 was 23.9 µM in assay [1] (Homo sapiens, HepG2, 48 h); 31.1 µM in assay [2] (Homo sapiens, K562, 48 h); 22.9 µM in assay [3] (Homo sapiens, HCT-116, 48 h); 23.2 µM in assay [4] (QSG7701, 48 h).

For `CC(=O)c1ccc2c3c(cccc13)C(=O)N(CCCCNCCCCNCCCCN)C2=O` [5f, 2-{4-[4-(4-Aminobutylamino)butylamino]butyl}-6-acetyl-1H-benz[de]isoquinoline-1,3(2H)-dione trihydrochloride], the IC50 in assay [1] (Homo sapiens, HepG2, 48 h) is 30.7 µM; in assay [2] (Homo sapiens, K562, 48 h), 18.8 µM; in assay [3] (Homo sapiens, HCT-116, 48 h), 19.6 µM; in assay [4] (QSG7701, 48 h) it was 21.2 µM.

As for `NCCCNCCCNCC(=O)NCCCN1C(=O)c2cccc3cccc(c23)C1=O` [11b, 2-(3-(3-Aminopropylamino)propylamino)-N-(3-(1,3-dioxo-1H-benzo[de]isoquinolin-2(3H)-yl)propyl)acetamide trihydrochloride], the IC50 was over 50 µM in assay [1] (Homo sapiens, HepG2, 48 h); 28 µM in assay [2] (Homo sapiens, K562, 48 h); over 50 µM in assay [3] (Homo sapiens, HCT-116, 48 h); 42.9 µM in assay [4] (QSG7701, 48 h); 16.8 µM in assay [5].

For the molecule `NCCCCNCCCCNCCCCN1C(=O)c2ccc(-c3ccccc3)cc2C1=O` [17d, 5-Phenyl-2-{4-[4-(4-aminobutylamino)-butylamino]butyl}isoindoline-1,3-dione trihydrochloride], the IC50 is over 50 µM in assay [1] (Homo sapiens, HepG2, 48 h); over 50 µM in assay [2] (Homo sapiens, K562, 48 h); over 50 µM in assay [3] (Homo sapiens, HCT-116, 48 h); over 50 µM in assay [4] (QSG7701, 48 h).

For `NCCCNCCCCNCCCN1C(=O)c2ccc(-c3ccccc3)cc2C1=O` [17c, 5-Phenyl-2-{3-[4-(3-aminopropylamino)-amino]propyl}isoindoline-1,3-dione trihydrochloride], the half-maximal inhibitory concentration (IC50) in assay [1] (Homo sapiens, HepG2, 48 h) is over 50 µM; in assay [2] (Homo sapiens, K562, 48 h) it was over 50 µM; in assay [3] (Homo sapiens, HCT-116, 48 h), over 50 µM; in assay [4] (QSG7701, 48 h), over 50 µM.

For the molecule `NCCCNCC(=O)NCCCN1C(=O)c2cccc3cccc(c23)C1=O` [11a, 2-(3-Aminopropylamino)-N-(3-(1,3-dioxo-1H-benzo[de]isoquinolin-2(3H)-yl)propyl)acetamide dihydrochloride], the half-maximal inhibitory concentration (IC50) in assay [1] (Homo sapiens, HepG2, 48 h) is 53.5 µM; in assay [2] (Homo sapiens, K562, 48 h), 33.2 µM; in assay [3] (Homo sapiens, HCT-116, 48 h), 39.9 µM; in assay [4] (QSG7701, 48 h), 39.2 µM; in assay [5], 32.4 µM.

As to `NCCCNCCCNCCCN1C(=O)c2ccc(-c3ccccc3)cc2C1=O` [17b, 5-Phenyl-2-{3-[3-(3-aminopropylamino)-propylamino]propyl}isoindoline-1,3-dione trihydrochloride], the IC50 in assay [1] (Homo sapiens, HepG2, 48 h) is over 50 µM; in assay [2] (Homo sapiens, K562, 48 h) it was 28.2 µM; in assay [3] (Homo sapiens, HCT-116, 48 h), over 50 µM; in assay [4] (QSG7701, 48 h), over 50 µM.

`NCCCCNCCCCNCCCCNCC(=O)NCCCN1C(=O)c2cccc3cccc(c23)C1=O` [11f, 2-(4-(4-(4-Aminobutylamino)butylamino)butylamino)-N-(3-(1,3-dioxo-1H-benzo[de]isoquinolin-2(3H)-yl)propyl)acetamide tetrahydrochloride]: the concentration for half-maximal inhibition (IC50) in assay [1] (Homo sapiens, HepG2, 48 h) was over 50 µM; in assay [2] (Homo sapiens, K562, 48 h), 26.2 µM; in assay [3] (Homo sapiens, HCT-116, 48 h), over 50 µM; in assay [4] (QSG7701, 48 h), 50.6 µM; in assay [5], 57.1 µM.

Consider “2-{3-[4-(3-Aminopropylamino)butylamino]butyl}-6-acetyl-1H-benz[de]isoquinoline-1,3(2H)-dione trihydrochloride [5e]”, for which the IC50 in assay [1] (48 h) was determined as 22.1 µM; in assay [2] (48 h) it was 12.2 µM; in assay [3] (48 h), 16.9 µM; in assay [4] (48 h), 27.7 µM.

The term IC50 denotes the concentration that inhibits the measured activity by half.

Values taken from article PMC6273765, “Synthesis and Biological Evaluation of Novel Aromatic Imide-Polyamine Conjugates” (Molecules, 2016).
